Measurements: patent US4835160A, “Derivatives of pyridoindole, having anti-tumor properties” (Sanofi, priority 1986, dated 1989)

How the values were obtained:
[1] = tested on: leukemia P 388; assay: Test of leukemia P 388; IP/IP, D1-5; format: in vivo, CDF1 hybrid mice; conditions: D1-D5; for Number of survivors: day D30; for T/C %: survival time
Method: (2) In vivo: (GERAN et al., Cancer Chemother., 1972, 2, 07-57):
(§1) The antitumour activity was tested in vivo on various tumours inoculated in various ways according to the following general protocol:
(§2) All the male or female mice are inoculated on day D0 with a known quantity of viable tumour cells for ascitic tumours or with a known tumour fragment for solid tumours.
(§3) They are then distributed into various groups. Each group, corresponding to the animals treated by the product under test, is made up of 10 mice. The product under test is dissolved in distilled water and it is administered n times (Dx-Dy), n, y, and x varying according to the protocol chosen, at the rate of 0.1 ml of solution per 10 g by weight of mice treated and at specific doses for each protocol.
(§4) The "negative control" group, corresponding to the animals which are not treated by the product, contains 2√N animals, N being equal to or greater than the total number of mice treated by the product in the same experiment.
(§5) Finally, the tests can also be carried out at the same time as the study of a group called "positive control", of ten animals, which is treated by a molecule, known for its antitumour activity and which can vary according to the protocol chosen, in the same conditions as the groups treated by the product under test.
(§6) The antitumour activity is evaluated, in the case of ascitic tumours, by considering the increase in the survival time of the animals treated in comparison to that of the animals in the "negative control" group, according to the formula: [formula]
The criterion for activity varies according to the protocol.
(§7) Also, a product is considered as toxic at the dose studied when this T/C value is equal to or less than 85%. In addition, a product is also considered as toxic at the dose studied when the weight variation, expressed in grams and calculated by the formula: […]
"Average weight of the group measured on day 5--Average weight of the same group measured on day 1"
is equal to or less than 4 g.
(a) Test of lelukemia P 388; IP/IP, D1-5 (GERAN et al., Cancer Chemother., 1972, 2, 07-57).
The tests are carried out with CDF1 hybrid mice inoculated by intraperitoneal route with 10^6 leukemia cells from the P 388 line. The compound under test is administered for 5 successive days (D1-D5) by intraperitoneal route. The positive control for the test is 5-fluorouracile which is administered in the same conditions. The number of surviving animals is evaluated on day D30.

[2] = in vivo; design: species or system CDF1 hybrid mice; conditions: mouse, ip
Description: The compounds of the invention benefit from a good tolerance and a weak toxicity.
Thus the administration, to healthy CDF1 hybrid mice, in a single injection by intraperitoneal route, of the compounds under test, has enabled it to be established that the product is perfectly tolerated at a high dosage since the survival rate of the animals of the experiment was 100 out of 100 thirteen days after administration.

[3] = tested on: reticulosarcoma M5-M5076; assay: Test for reticulosarcoma M5-M5076; format: in vivo, BDF1 hybrid mice; conditions: 50 mg/kg IP, D1,5,9,13,17
Method: as §1, §2, §3, §4, §5, §6, §7
The tests are carried out with BDF1 hybrid mice inoculated by intraperitoneal route with 10^6 cells of the M5-M5076 line. The compound under test is administered 5 times successively in sequence (D1,5,9,13,17) by intraperitoneal route. The positive control for the test is cyclophosphamide administered in the same conditions. The number of surviving animals is evaluated on day D75.

[4] = tested on: melanoma B 16; assay: Test for melanoma B 16; format: in vivo, BDF1 hybrid mice; conditions: D1-D9; for Number of survivors: day D60; for T/C %: survival time
Method: as §1, §2, §3, §4, §5, §6, §7
(d) Test for melanoma B 16 (GERAN et al., Cancer Chemother., 1972, 2, 07-75).
The tests are carried out with BDF1 hybrid mice inoculated by intraperitoneal route with 0.5 ml of a homogenate of melanoma B 16 made up from 1 g of tumour in 10 ml of physiological serum. The compound under test is administered for 9 days (D1-D9) by intraperitoneal route. The positive control for the test is Cis-Platine administered in the same conditions. The number of surviving animals is evaluated on day D60.

[5] = tested on: leukemia tumour line L 1210; assay: In vitro cytotoxic activity on leukemia tumour line L 1210; format: cell-based; conditions: Mus musculus, L1210, 48 h, L 1210, 48 hours contact, 37° C.; read-out: I D 50 (concentration which inhibits the proliferation of the cells by 50%)
Method: (1) In vitro: ([…] et al., Chem. Biol. Interaction, 1979, 25, 45-58). The cytotoxic activity of the compounds of the invention has been evaluated by in vitro tests. These tests consist of adding increasing concentrations of the compound under test to a cellular culture of the leukemia tumour line L 1210 in an exponential phase of growth. The cellules are incubated at 37° C. in a CO2 incubator and counted every 24 hours. The calculation of the I D 50 (concentration of the product, expressed in 1^-1 micromole, which inhibits the proliferation of the cells by 50%) is made after 48 hours contact.

| Structure (SMILES) | Median day of survival ([1]; 10 mg/kg IP) [days] | Variation by weight ([1]; 10 mg/kg IP) [g] | Number of survivors ([1]; 10 mg/kg IP) | T/C % ([1]; 10 mg/kg IP) [%] | Median day of survival ([1]; 5 mg/kg IP) [days] | Variation by weight (g) ([1]; 5 mg/kg IP) | Number of survivors ([1]; 5 mg/kg IP) | T/C % ([1]; 5 mg/kg IP) [%] | Median day of survival ([1]; 20 mg/kg IP) [days] | Number of survivors ([1]; 20 mg/kg IP) | T/C % ([1]; 20 mg/kg IP) [%] | Median day of survival ([1]; 40 mg/kg IP) [days] | Variation by weight ([1]; 40 mg/kg IP) [g] | Number of survivors ([1]; 40 mg/kg IP) | T/C % ([1]; 40 mg/kg IP) [%] | IC50 [5] [nM] | also measured |
| --- | --- | --- | --- | --- | --- | --- | --- | --- | --- | --- | --- | --- | --- | --- | --- | --- | --- |
| CCN(CC)CCCNc1ncc(C)c2[nH]c3ccccc3c12 [Derivative No. 1, 1-(3-diethylaminopropylamino) 4-methyl-5H-pyrido-[4,3-b]indole] | 15.7 | -0.9 | 0/10 | 130 |  |  |  |  |  |  |  |  |  |  |  |  | Median day of survival ([1]; 50 mg/kg IP): 21.0 days; Variation by weight ([1]; 50 mg/kg IP): -2.6 g; Number of survivors ([1]; 50 mg/kg IP): 0/10; T/C % ([1]; 50 mg/kg IP): 174%; survival at 312 h ([2]; 100 mg/kg): 100%; Median day of survival [3]: 32.7 days; Variation by weight [3]: -0.6 g; Number of survivors ([3]; day D75): 0/10; T/C % ([3]; survival time): 130% |
| CCN(CC)CCCNc1ncc(C)c2[nH]c3ccc(OC)cc3c12 [Derivative No. 4, 1-(3-diethylaminopropylamino)-8-methoxy-4-methyl-5H-pyrido[4,3-b]indole] | 17.0 |  | 0/10 | 147 | 14.0 | +1.1 g | 0/10 | 121 | 17.25 | 0/10 | 149 | 20.3 | -3.4 | 0/10 | 176 | 300 | Variation by weight (g) ([1]; 10 mg/kg IP): +0.7 g; Variation by weight ([1]; 20 mg/kg IP): -0.9 g; Median day of survival ([1]; 80 mg/kg IP): 6.6 days; Variation by weight ([1]; 80 mg/kg IP): -4.8 g; Number of survivors ([1]; 80 mg/kg IP): 0/10; T/C % ([1]; 80 mg/kg IP): 57%; Median day of survival ([4]; 5 mg/kg IP): 29.0 days; Variation by weight ([4]; 5 mg/kg IP): -1.9 g; Number of survivors ([4]; 5 mg/kg IP): 0/10; T/C % ([4]; 5 mg/kg IP): 135%; survival at 312 h ([2]; 50 mg/kg): 100% |
| Cc1cnc(NCCCN(C)C)c2c1[nH]c1ccc(O)cc12 [Derivative No. 9, 1-(3-dimethylaminopropylamino)-8-hydroxy-4-methyl-5H-pyrido[4,3-b]indole] |  |  |  |  |  |  |  |  |  |  |  |  |  |  |  | 90 | Median day of survival ([4]; 0.625 mg/kg IP): 28 days; Variation by weight (g) ([4]; 0.625 mg/kg IP): +1.3 g; Number of survivors ([4]; 0.625 mg/kg IP): 0/10; T/C % ([4]; 0.625 mg/kg IP): 118%; Median day of survival ([4]; 1.25 mg/kg IP): 33.0 days; Variation by weight (g) ([4]; 1.25 mg/kg IP): +0.1 g; Number of survivors ([4]; 1.25 mg/kg IP): 1/10; T/C % ([4]; 1.25 mg/kg IP): 139%; Median day of survival ([4]; 2.5 mg/kg IP): 31.25 days; Variation by weight (g) ([4]; 2.5 mg/kg IP): +0.8 g; Number of survivors ([4]; 2.5 mg/kg IP): 1/10; T/C % ([4]; 2.5 mg/kg IP): 131% |
| Cc1cnc(NCCCN(C)C)c2c3ccccc3n(C)c12.Cl.Cl [Derivative No. 17, 4,5-dimethyl 1-(3-dimethylaminopropylamino)-5H-pyrido[4,3-b]indole dihydrochloride] |  |  |  |  |  |  |  |  |  |  |  |  |  |  |  | 350 | Median day of survival ([1]; 24 mg/kg IP): 15.4 days; Variation by weight ([1]; 24 mg/kg IP): 0.0 g; Number of survivors ([1]; 24 mg/kg IP): 0/10; T/C % ([1]; 24 mg/kg IP): 131% |
| CCN(CC)CCNc1ncc(C)c2c1c1cc(O)ccc1n2C.Cl.Cl [Derivative No. 19, 1-(2-diethylaminoethylamino)-4,5-dimethyl-8-hydroxy-5H-pyrido[4,3-b]indole dihydrochloride] | 17.0 | -0.2 | 0/6 | 153 | 15.3 | +0.5 g | 0/6 | 142 | 20.3 | 0/6 | 182 | 15.3 | -2.1 | 0/6 | 137 | 150 | Variation by weight (g) ([1]; 20 mg/kg IP): +0.3 g |
